In PMC12584836, “Rubus caesius leaves and stems in antiaging skin care products: antityrosinase, anticollagenase, antimicrobial activity, and transdermal distribution of main phenolic acids” (Pharmaceutical Biology, 2025):
Marks after values point to notes of the source that are not given here.

How the values were obtained:
[1] = Skin permeation from hydrogels in Franz diffusion cells; type: in vitro ADME; settings: porcine skin
Protocol: Permeation experiments were conducted using Franz diffusion cells (Phoenix DB-6, ABL&E-JASCO, Wien, Austria), with a donor chamber area of 1 cm^2 and 10 mL acceptor chamber filled with phosphate-buffered saline (PBS, pH 7.4). The system was maintained at 37.0 ± 0.5 °C, and the acceptor solutions were continuously stirred.
Skin samples were wrapped in aluminum foil, frozen at −20 °C for no longer than three months. […] Skin impedance was measured by immersing the probe tips in the donor and acceptor chambers filled with PBS.
One gram of each hydrogel was applied to the donor chamber. All chambers were sealed with plastic stoppers to minimize evaporation. […] Phenolic acid concentrations were determined by HPLC.
J-shaped profiles and the following equations were used: (1) A=JSS(t−LT) where A is the cumulative amount permeated (μg·cm^−2) of tested phenolic acids permeating into the receptor compartment; JSS is the steady-state flux (μg·cm^−2·h^−1); t is the time (h), and LT is the lag time (h).
The steady-state flux was estimated from the slope of the linear portion of the plot of cumulative mass in the acceptor phase over time. The lag time (LT) was determined from the x-intercept of the linear portion of the plot of cumulative mass in the acceptor phase over time and was used to calculate the […] (KP) as follows: (2) KP=JSS/C where C is the concentration in the donor phase.

[2] = Skin accumulation after 24 h permeation; type: in vitro ADME; settings: after 24-h penetration; HL-E application; porcine skin
Protocol: Following incubation, samples were homogenized (IKA®T18 digital ULTRA TURRAX, Germany) for 3 min and centrifuged at 3500 rpm for 5 min. The resulting supernatants were analyzed by HPLC spectrophotometry, with methanol used as a blank. Accumulated phenolic acids were expressed as amount (µg) per gram of skin tissue (µg·g skin^−1).

In the case of `O=C(O)/C=C/c1ccc(O)c(O)c1` [Caffeic acid, caffeic acid], the “Phenolic acids concentration in the acceptor fluid (cumulative mass)” value (from here on “Phenolic acids concentration”) ([1]; from hydrogel HL-E, 3 h) is reported as 2.58 ± 0.20^a µg/cm^2, the “Phenolic acids concentration” value ([1]; from hydrogel HL-E, 5 h) is reported as 2.84 ± 0.07^a µg/cm^2 and the “Phenolic acids concentration” value ([1]; from hydrogel HL-E, 8 h) is reported as 3.30 ± 0.13^a µg/cm^2. For the same molecule, the “Phenolic acids concentration” value ([1]; from hydrogel HL-E, 24 h) was 7.83 ± 0.83^a µg/cm^2, the “D·10^4, diffusion coefficient” value ([1]; from hydrogel HL-E) was 3.41 ± 0.28 cm^2/h and the “JSS, steady-state flux” value ([1]; from hydrogel HL-E) was 0.84 ± 0.02 µg/cm^2·h. The “LT, lag time” value ([1]; from hydrogel HL-E) was 1.22 ± 0.09 h, the “Q%24h, percentage of applied dose in acceptor phase after 24 h” value (from here on “Q%24h, percentage of applied dose”) ([1]; from hydrogel HL-E) was 0.68 ± 0.07% and the “Phenolic acids concentration” value ([1]; from hydrogel HS-E, 24 h) was “not permeating at all”.

In the case of `O=C(O)/C=C/c1ccc(O)cc1` [Coumaric acid, coumaric acid], the “Phenolic acids concentration” value ([1]; from hydrogel HL-E, 3 h) is reported as 4.97 ± 0.09^a µg/cm^2, the “Phenolic acids concentration” value ([1]; from hydrogel HL-E, 5 h) is reported as 7.04 ± 0.75^a µg/cm^2 and the “Phenolic acids concentration” value ([1]; from hydrogel HL-E, 8 h) is reported as 8.95 ± 1.00^a µg/cm^2. For the same molecule, the “Phenolic acids concentration” value ([1]; from hydrogel HL-E, 24 h) was 12.45 ± 0.26^a µg/cm^2, the “D·10^4, diffusion coefficient” value ([1]; from hydrogel HL-E) was 9.27 ± 0.73 cm^2/h and the “JSS, steady-state flux” value ([1]; from hydrogel HL-E) was 1.35 ± 0.17 µg/cm^2·h. For the same molecule, the “Q%24h, percentage of applied dose” value ([1]; from hydrogel HL-E) was 2.62 ± 0.05%, the “Phenolic acids concentration” value ([1]; from hydrogel HS-E, 8 h) was 5.10 ± 0.11^b µg/cm^2 and the “Phenolic acids concentration” value ([1]; from hydrogel HS-E, 24 h) was 5.93 ± 0.08^b µg/cm^2. The “Q%24h, percentage of applied dose” value ([1]; from hydrogel HS-E) was 5.37 ± 0.07%.

For `O=C(O)c1cc(O)c(O)c(O)c1` [Gallic acid, gallic acid], the “Phenolic acids concentration” value ([1]; from hydrogel HL-E, 1 h) was 3.64 ± 0.12^a µg/cm^2, the “Phenolic acids concentration” value ([1]; from hydrogel HL-E, 2 h) was 4.54 ± 0.47^a µg/cm^2 and the “Phenolic acids concentration” value ([1]; from hydrogel HL-E, 3 h) was 6.18 ± 0.35^a µg/cm^2. For the same molecule, the “Phenolic acids concentration” value ([1]; from hydrogel HL-E, 5 h) was 10.24 ± 0.97^a µg/cm^2, the “Phenolic acids concentration” value ([1]; from hydrogel HL-E, 8 h) was 16.09 ± 1.19^a µg/cm^2 and the “Phenolic acids concentration” value ([1]; from hydrogel HL-E, 24 h) was 49.62 ± 2.18^a µg/cm^2. The “Phenolic acids concentration” value ([1]; from hydrogel HL-E, 24 h, listed as gallic acid) was 49.62 ± 2.18 µg/cm^2, the “D·10^4, diffusion coefficient” value ([1]; from hydrogel HL-E) was 25.73 ± 1.64 cm^2/h and the “JSS, steady-state flux” value ([1]; from hydrogel HL-E) was 2.08 ± 0.08 µg/cm^2·h. For the same molecule, the “LT, lag time” value ([1]; from hydrogel HL-E) was 0.16 ± 0.02 h, the “Q%24h, percentage of applied dose” value ([1]; from hydrogel HL-E) was 5.78 ± 0.25% and the “Q%24h, percentage of applied dose” value ([1]; from hydrogel HL-E, listed as gallic acid) was 5.78%. For the same molecule, the “Phenolic acids concentration” value ([1]; from hydrogel HS-E, 5 h) was 3.95 ± 0.18^b µg/cm^2, the “Phenolic acids concentration” value ([1]; from hydrogel HS-E, 8 h) was 4.69 ± 0.19^b µg/cm^2 and the “Phenolic acids concentration” value ([1]; from hydrogel HS-E, 24 h) was 7.19 ± 0.47^b µg/cm^2. The “D·10^4, diffusion coefficient” value ([1]; from hydrogel HS-E) was 2.01 ± 0.09 cm^2/h, the “JSS, steady-state flux” value ([1]; from hydrogel HS-E) was 0.88 ± 0.04 µg/cm^2·h and the “LT, lag time” value ([1]; from hydrogel HS-E) was 2.08 ± 0.09 h. The “Q%24h, percentage of applied dose” value ([1]; from hydrogel HS-E) was 4.78 ± 0.35% and the “Accumulation of phenolic acid in the skin” value [2] was 70.62 ± 4.06 µg/g skin.

For `COc1cc(C(=O)O)ccc1O` [Vanillic acid, vanillic acid], the “Phenolic acids concentration” value ([1]; from hydrogel HL-E, 3 h) was 0.49 ± 0.25^a µg/cm^2, the “Phenolic acids concentration” value ([1]; from hydrogel HL-E, 5 h) was 1.76 ± 0.82^a µg/cm^2 and the “Phenolic acids concentration” value ([1]; from hydrogel HL-E, 8 h) was 3.92 ± 1.06^a µg/cm^2. For the same molecule, the “Phenolic acids concentration” value ([1]; from hydrogel HL-E, 24 h) was 15.61 ± 2.42^a µg/cm^2, the “D·10^4, diffusion coefficient” value ([1]; from hydrogel HL-E) was 2.68 ± 0.19 cm^2/h and the “JSS, steady-state flux” value ([1]; from hydrogel HL-E) was 0.54 ± 0.03 µg/cm^2·h. The “LT, lag time” value ([1]; from hydrogel HL-E) was 1.55 ± 0.13 h, the “Q%24h, percentage of applied dose” value ([1]; from hydrogel HL-E) was 4.77 ± 0.29% and the “Q%24h, percentage of applied dose” value ([1]; from hydrogel HL-E, listed as vanillic acid) was 4.77%. For the same molecule, the “Phenolic acids concentration” value ([1]; from hydrogel HS-E, 24 h) was 0.95 ± 0.15^b µg/cm^2 and the “Q%24h, percentage of applied dose” value ([1]; from hydrogel HS-E) was 3.28 ± 0.52%.
